Results taken from PubChem BioAssay AID330 (DTP/NCI, 2004).
Several values for one entry are separate records, joined by “and”; a condition that tells them apart may be missing. Identical values can stand only once. Toxic doses and inconclusive results are not listed. Rule for the calls: active = survival T/C of 150% or more; inactive = T/C below 125% in these data.

System: P388 leukemia ip, CD2F1 mice, survival T/C
Test: NCI In Vivo Anticancer Drug Screen. Data for tumor model P388 Leukemia (intraperitoneal) in CD2F1 (CDF1) mice
Conditions: endpoint: median survival time, higher = longer survival
How it was run: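 Mice carrying the transplanted tumor received test compound or vehicle. Survival was recorded in each group, and the value is the treated-group measurement divided by that of the vehicle-treated control group.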

[1] = dose: 50.0 mg/kg/injection, schedule: Q01DX009 (ip), vehicle: saline
[2] = dose: 100.0 mg/kg/injection, schedule: Q01DX009 (ip), vehicle: saline
[3] = dose: 200.0 mg/kg/injection, schedule: Q01DX009 (ip), vehicle: saline
[4] = dose: 60.0 mg/kg/injection, schedule: Q01DX005 (ip), vehicle: saline with Tween-80

Measured: T/C

N=C(N)c1ccc(OCCCCCCOc2ccc(C(=N)N)cc2I)cc1
inactive: dose: 3.12 mg/kg/injection, schedule: Q01DX005 (ip), vehicle: Klucel (hydroxypropylcellulose) (HPC) 97 % of control | dose: 6.25 mg/kg/injection, schedule: Q01DX005 (ip), vehicle: Klucel (hydroxypropylcellulose) (HPC) 106 % of control | dose: 12.5 mg/kg/injection, schedule: Q01DX005 (ip), vehicle: Klucel (hydroxypropylcellulose) (HPC) 107 % of control and 97 % of control

CCOC(=O)C(C(C)=O)C(=O)c1ccccc1 (stereo not drawn)
inactive: dose: 50.0 mg/kg/injection, schedule: Q01DX009 (ip), vehicle: saline + alcohol 95 % of control | dose: 100.0 mg/kg/injection, schedule: Q01DX009 (ip), vehicle: saline + alcohol 101 % of control | dose: 200.0 mg/kg/injection, schedule: Q01DX009 (ip), vehicle: saline + alcohol 96 % of control

NC1C([O-])OC(CO)C(O)C1O.O=C1OC(C(O)CO)C([O-])=C1[OH2+].[Cu+2] (stereo not drawn)
inactive: dose: 6.25 mg/kg/injection, schedule: Q01DX005 (ip), vehicle: saline 93 % of control | dose: 12.5 mg/kg/injection, schedule: Q01DX005 (ip), vehicle: saline 99 % of control

Cc1nc(Cl)c2c3c(sc2n1)CCCC3
inactive: dose: 18.75 mg/kg/injection, schedule: Q01DX001 (ip), vehicle: saline sonified 95 % of control | dose: 37.5 mg/kg/injection, schedule: Q01DX001 (ip), vehicle: saline sonified 100 % of control | dose: 75.0 mg/kg/injection, schedule: Q01DX001 (ip), vehicle: saline sonified 100 % of control

CN1CNC(=S)NC1
inactive: [1] 105 % of control | [2] 102 % of control | [3] 101 % of control

CC(=O)NC(C)C(C)(C)O (stereo not drawn)
inactive: [1] 96 % of control | [2] 118 % of control | [3] 105 % of control | dose: 400.0 mg/kg/injection, schedule: Q01DX009 (ip), vehicle: saline 105 % of control

Cc1cc(=O)oc2cc(OC(=O)N(C)C)ccc12
inactive: dose: 100.0 mg/kg/injection, schedule: Q04DX003 (ip), vehicle: saline 115 % of control | dose: 200.0 mg/kg/injection, schedule: Q04DX003 (ip), vehicle: saline 112 % of control | dose: 400.0 mg/kg/injection, schedule: Q04DX003 (ip), vehicle: saline 97 % of control

CN(C)S(=O)(=O)CC(O)C(Cl)(Cl)Cl (stereo not drawn)
inactive: [1] 100 % of control | [2] 98 % of control | [3] 98 % of control

Cc1cc2nc(Cc3nc4cc(C)c(C)cc4[nH]3)[nH]c2cc1C
inactive: dose: 25.0 mg/kg/injection, schedule: Q01DX009 (ip), vehicle: saline with Tween-80 90 % of control | dose: 50.0 mg/kg/injection, schedule: Q01DX009 (ip), vehicle: saline with Tween-80 90 % of control | dose: 100.0 mg/kg/injection, schedule: Q01DX009 (ip), vehicle: saline with Tween-80 100 % of control and 95 % of control | dose: 200.0 mg/kg/injection, schedule: Q01DX009 (ip), vehicle: saline with Tween-80 90 % of control

NC(=O)N/N=C1\CCn2cccc21
inactive: [4] 92 % of control | dose: 120.0 mg/kg/injection, schedule: Q01DX005 (ip), vehicle: saline with Tween-80 95 % of control

C[n+]1c(SCC(=O)O)sc2ccccc21
inactive: dose: 12.5 mg/kg/injection, schedule: Q01DX009 (ip), vehicle: saline 99 % of control | dose: 25.0 mg/kg/injection, schedule: Q01DX009 (ip), vehicle: saline 104 % of control | [1] 108 % of control and 122 % of control

CC(=O)Nc1cc2cc(NS(=O)(=O)c3cc(C(F)(F)F)cc(C(F)(F)F)c3)ccc2oc1=O
inactive: dose: 1.5 mg/kg/injection, schedule: Q01DX005 (ip), vehicle: Klucel + Tween-80 94 % of control | dose: 3.0 mg/kg/injection, schedule: Q01DX005 (ip), vehicle: Klucel + Tween-80 99 % of control and 91 % of control | dose: 6.0 mg/kg/injection, schedule: Q01DX005 (ip), vehicle: Klucel + Tween-80 96 % of control | dose: 12.0 mg/kg/injection, schedule: Q01DX005 (ip), vehicle: Klucel + Tween-80 91 % of control | dose: 12.5 mg/kg/injection, schedule: Q01DX005 (ip), vehicle: Klucel + Tween-80 87 % of control | dose: 50.0 mg/kg/injection, schedule: Q01DX005 (ip), vehicle: Klucel + Tween-80 95 % of control

NC[CH2][Sn]([c]1ccccc1)([CH]1CCCCC1)[CH]1CCCCC1
inactive: dose: 3.75 mg/kg/injection, schedule: Q01DX005 (ip), vehicle: saline with Tween-80 100 % of control | dose: 7.5 mg/kg/injection, schedule: Q01DX005 (ip), vehicle: saline with Tween-80 93 % of control | dose: 15.0 mg/kg/injection, schedule: Q01DX005 (ip), vehicle: saline with Tween-80 99 % of control | [4] 92 % of control
